{"source": "ChEMBL document CHEMBL3132793", "about": "“Novel FK506 and FK520 analogues via mutasynthesis: mutasynthon scope and product characteristics” (Medchemcomm, 2013)", "key": {"[1]": {"experiment": "Half life in human liver microsomes", "assay_type": "ADME"}, "[2]": {"experiment": "Solubility of the compound in phosphate buffered saline", "assay_type": "physicochemical"}, "[3]": {"experiment": "Half life in mouse liver microsomes", "assay_type": "ADME, Microsome"}, "[4]": {"experiment": "Inhibition of calcineurin in human Jurkat cells assessed as inhibition of NFAT-mediated IL-2 production after 8 hrs by beta-lactamase reporter gene assay", "assay_type": "cell-based"}, "[5]": {"details": "phosphate buffered saline, read-out: solubility"}}, "data": [{"molecule": "C=CC[C@@H]1/C=C(\\C)C[C@H](C)C[C@H](OC)[C@H]2O[C@@](O)(C(=O)C(=O)N3CCCC[C@H]3C(=O)O[C@H](/C(C)=C/[C@H]3CC=CCC3)[C@H](C)[C@@H](O)CC1=O)[C@H](C)C[C@@H]2OC", "values": [{"measurement": "half-life", "setting": "[1]", "result": 5.7, "unit": "min"}, {"measurement": "solubility", "setting": "[2]; [5]", "result": 0.7, "unit": "µM"}, {"measurement": "half-life", "setting": "[3]", "result": 3, "unit": "min"}, {"measurement": "IC50", "setting": "[4]", "result": 433, "unit": "pM"}]}, {"molecule": "C=CC[C@@H]1/C=C(\\C)C[C@H](C)C[C@H](OC)[C@H]2O[C@@](O)(C(=O)C(=O)N3CCCC[C@H]3C(=O)O[C@H](/C(C)=C/[C@@H]3CC[C@@H](O)[C@H](OC)C3)[C@H](C)[C@@H](O)CC1=O)[C@H](C)C[C@@H]2OC", "note": "[TACROLIMUS ANHYDROUS]", "values": [{"measurement": "half-life", "setting": "[1]", "result": 2.4, "unit": "min"}, {"measurement": "solubility", "setting": "[2]; [5]", "result": 42.4, "unit": "µM"}, {"measurement": "half-life", "setting": "[3]", "result": 22.1, "unit": "min"}, {"measurement": "IC50", "setting": "[4]", "result": 56, "unit": "pM"}]}, {"molecule": "CC[C@@H]1/C=C(\\C)C[C@H](C)C[C@H](OC)[C@H]2O[C@@](O)(C(=O)C(=O)N3CCCC[C@H]3C(=O)O[C@H](/C(C)=C/[C@@H]3CC[C@@H](O)[C@H](OC)C3)[C@H](C)[C@@H](O)CC1=O)[C@H](C)C[C@@H]2OC", "note": "[ASCOMYCIN]", "values": [{"measurement": "half-life", "setting": "[1]", "result": 2.4, "unit": "min"}, {"measurement": "solubility", "setting": "[2]; buffer", "result": 40.2, "unit": "µM"}, {"measurement": "half-life", "setting": "[3]", "result": 17.4, "unit": "min"}, {"measurement": "IC50", "setting": "[4]", "result": 205, "unit": "pM"}]}, {"molecule": "CC[C@@H]1/C=C(\\C)C[C@H](C)C[C@H](OC)[C@H]2O[C@@](O)(C(=O)C(=O)N3CCCC[C@H]3C(=O)O[C@H](/C(C)=C/[C@H]3CC[C@H](O)CC3)[C@H](C)[C@@H](O)CC1=O)[C@H](C)C[C@@H]2OC", "values": [{"measurement": "IC50", "setting": "[4]", "result": 249, "unit": "pM"}]}, {"molecule": "CC[C@@H]1/C=C(\\C)C[C@H](C)C[C@H](OC)[C@H]2O[C@@](O)(C(=O)C(=O)N3CCCC[C@H]3C(=O)O[C@H](/C(C)=C/[C@H]3CCCC(O)CC3)[C@H](C)[C@@H](O)CC1=O)[C@H](C)C[C@@H]2OC", "note": "(stereo not given in full)", "values": [{"measurement": "half-life", "setting": "[1]", "result": 3.1, "unit": "min"}, {"measurement": "solubility", "setting": "[2]; [5]", "result": 86.5, "unit": "µM"}, {"measurement": "half-life", "setting": "[3]", "result": 3.8, "unit": "min"}, {"measurement": "IC50", "setting": "[4]", "result": 72, "unit": "pM"}]}, {"molecule": "CC[C@@H]1/C=C(\\C)C[C@H](C)C[C@H](OC)[C@H]2O[C@@](O)(C(=O)C(=O)N3CCCC[C@H]3C(=O)O[C@H](/C(C)=C/[C@@H]3CC[C@@H](O)[C@@H](F)C3)[C@H](C)[C@@H](O)CC1=O)[C@H](C)C[C@@H]2OC", "values": [{"measurement": "half-life", "setting": "[1]", "result": 3.2, "unit": "min"}, {"measurement": "solubility", "setting": "[2]; [5]", "result": 35.6, "unit": "µM"}, {"measurement": "half-life", "setting": "[3]", "result": 11.3, "unit": "min"}, {"measurement": "IC50", "setting": "[4]", "result": 82, "unit": "pM"}]}, {"molecule": "C=CC[C@@H]1/C=C(\\C)C[C@H](C)C[C@H](OC)[C@H]2O[C@@](O)(C(=O)C(=O)N3CCCC[C@H]3C(=O)O[C@H](/C(C)=C/[C@H]3CC[C@H](O)CC3)[C@H](C)[C@@H](O)CC1=O)[C@H](C)C[C@@H]2OC", "values": [{"measurement": "half-life", "setting": "[1]", "result": 2.6, "unit": "min"}, {"measurement": "solubility", "setting": "[2]; [5]", "result": 1.3, "unit": "µM"}, {"measurement": "half-life", "setting": "[3]", "result": 9, "unit": "min"}, {"measurement": "IC50", "setting": "[4]", "result": 145, "unit": "pM"}]}, {"molecule": "CC[C@@H]1/C=C(\\C)C[C@H](C)C[C@H](OC)[C@H]2O[C@@](O)(C(=O)C(=O)N3CCCC[C@H]3C(=O)O[C@H](/C(C)=C/C3CCOCC3)[C@H](C)[C@@H](O)CC1=O)[C@H](C)C[C@@H]2OC", "values": [{"measurement": "half-life", "setting": "[1]", "result": 1.8, "unit": "min"}, {"measurement": "solubility", "setting": "[2]; [5]", "result": 13.4, "unit": "µM"}, {"measurement": "half-life", "setting": "[3]", "result": 7.6, "unit": "min"}, {"measurement": "IC50", "setting": "[4]", "result": 461, "unit": "pM"}]}, {"molecule": "CO[C@H]1C[C@@H](C)C/C(C)=C/[C@@H](C)C(=O)C[C@H](O)[C@@H](C)[C@@H](/C(C)=C/[C@@H]2CC[C@@H](O)[C@@H](F)C2)OC(=O)[C@@H]2CCCCN2C(=O)C(=O)[C@]2(O)O[C@H]1[C@@H](OC)C[C@H]2C", "values": [{"measurement": "IC50", "setting": "[4]", "result": 283, "unit": "pM"}]}]}
